# According to article PMC11325555, “Interaction of Bisphenol A and Its Analogs with Estrogen and Androgen Receptor from Atlantic Cod (Gadus morhua)” (Environmental Science & Technology, 2024):
# Tested on: Atlantic cod precision-cut liver slices (PCLS)
# Experiment: PCLS viability, lactate dehydrogenase (LDH) assay
# Format: cell-based, Atlantic cod (Gadus morhua)
# Details: 1µM; 96 h exposure
# Description: To monitor the viability of the liver tissue, the release of LDH to the medium was quantified with an LDH Cytotoxicity Detection kit (Roche, Basel, Switzerland) according to the manufacturer’s protocol. Briefly, 50 μL of PCLS medium collected at the end of 96 h exposure was pipetted in triplicates into a clear 96-well plate, 50 μL of provided reagent mixture with the substrate was added, and the mixture was incubated for 10 min at room temperature in the dark. Absorbance was measured at 490 nm using an EnSpire plate reader (PerkinElmer, Waltham, USA), with 650 nm reference measurement. The LDH activity was normalized to the liver tissue weight, and statistical analysis was performed as described above for the ELISA data.
# Figure S3. Assessment of PCLS tissue viability in BP-treated and DMSO control groups. Data points represent mean ± SD of fold-changes (normalized to DMSO) in LDH activity (in the culture medium) per mg of tissue (n = 5-6). For each compound, increasing concentrations used are arranged bottom up vertically (y-axis), […]
# starting with DMSO control. […]
# in comparisons between the different concentrations and the corresponding DMSO control. One treatment group […]
# Figure S4. Sequence alignment of ligand binding domain of gmEra and hsERa. Alignment was constructed in Jalview using Clustal with default settings. […]
compound,measurement,value
Oc1ccc(C2(c3ccc(O)cc3)c3ccccc3-c3ccccc32)cc1 [BPFL],"LDH activity in PCLS culture medium vs DMSO control, result in words",significantly lower LDH activity
